Drawing on patent US8933096B2, “Antimicrobial agents” (Rugers, The State University of New Jersey, priority 2010, dated 2015), this text covers MIC and IC50 for nine compounds.

For assay [1], the system named is methicillin-Sensitive Staphylococcus aureus (MSSA). Put plainly: Test C: planktonic antibacterial broth microdilution assay (MIC) vs MSSA. The format is cell-based. Conditions: 37° C., growth read after 24 to 48 hours at OD 600 nm. Here is the method: (§1) Test C. Planktonic (Free-Living) Antibacterial Assay.
(§2) Planktonic antibacterial activity can be determined using a broth microdilution assay in which log-phase bacteria are grown at 37° C. in appropriate medium containing two-fold serial dilutions of a compound to yield a final concentration ranging from 256 to 0.1 μg/ml. For determination of minimal inhibitory concentration (MIC) values, bacterial growth is monitored after 24 to 48 hours by measuring optical density at 600 nm.
On the technique in general: Broth dilution looks for growth in wells or tubes with falling amounts of substance.

In another assay the target is T1, S. aureus FtsZ GTPase (Staphylococcus aureus, UniProt P0A031).
T1 sequence (P0A031 1-390): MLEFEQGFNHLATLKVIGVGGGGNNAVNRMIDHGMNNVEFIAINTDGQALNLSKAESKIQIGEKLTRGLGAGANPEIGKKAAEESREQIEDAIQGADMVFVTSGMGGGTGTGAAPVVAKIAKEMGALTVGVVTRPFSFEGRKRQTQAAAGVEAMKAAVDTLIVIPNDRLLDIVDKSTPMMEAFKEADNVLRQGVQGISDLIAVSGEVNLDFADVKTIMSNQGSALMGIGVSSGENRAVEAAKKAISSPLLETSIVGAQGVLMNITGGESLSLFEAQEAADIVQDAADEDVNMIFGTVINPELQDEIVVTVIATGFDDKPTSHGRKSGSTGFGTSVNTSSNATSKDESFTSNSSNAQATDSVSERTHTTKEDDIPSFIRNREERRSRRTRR
Put plainly: Test B: FtsZ GTPase inhibition, colorimetric malachite green assay. The assay is classed as biochemical. As to conditions: 1 mM GTP, 20 mM CaCl2, 2 μM FtsZ, 60 minutes at room temperature, read-out: IC50 (compound concentration at which FtsZ GTPase activity is inhibited by 50%). The text has this: Test B. Determining the FtsZ GTPase Inhibitory Activities of Compounds of the Invention.
Compound-induced inhibition of the FtsZ GTPase activity can be tested using a colorimetric assay in which the inorganic phosphate (Pi) released upon FtsZ-catalyzed hydrolysis of GTP reacts with malachite green and molybdate under acidic conditions to form a ternary complex that absorbs light at 650 nm, thus enabling quantitation of Pi levels by recording the absorbance at 650 nm (A650). All reactions are conducted in triplicate in 96-well microtiter plates. Differing concentrations (ranging from 0 to 1.5 mM) of compound are combined with 1 mM GTP and 20 mM CaCl2, the latter being used because FtsZ GTPase activity requires the presence of Ca2+ ions. The reactions will be initiated by addition of 2 μM FtsZ and allowed to incubate for 60 minutes at room temperature. Following incubation, the reactions will be stopped by adding 80 μl of an acidic malachite green-molybdate solution containing 0.3 mg/ml malachite green oxalate, 2 mg/ml sodium molybdate, 0.5 mg/ml Triton X-100, and 0.7 N HCl. […] Ten minutes following addition of the acidic malachite green-molybdate solution, the A650 value for each reaction are recorded using a microtiter plate reader. […] This standard curve is then fit by linear regression analysis to yield the quantitative relationship between A650 and Pi concentration. […]

For a further assay, the system named is MRSA. Put plainly: Test C: planktonic antibacterial broth microdilution assay (MIC) vs MRSA. The assay is classed as cell-based. Conditions: Staphylococcus aureus, 37° C., growth read after 24 to 48 hours at OD 600 nm. Here is the method:
as §1, §2

Turning to `COc1cc2cc(-c3cc(-c4ccccc4)cc(-c4ccccc4)c3)nc(N=C(N)N)c2cc1OC` [Example 3], the minimum inhibitory concentration (MIC) (in general, the smallest concentration in the dilution series that meets the test's criterion for growth inhibition) in assay [1] is not above 32 µg/mL. On to `COc1cc(-c2cc3ccccc3c[n+]2C)cc(-c2cccc(-c3ccc(F)cc3)c2)c1OC.[I-]` [Example 22], for which the IC50 at S. aureus FtsZ GTPase is less than 100 µM. Further, the MIC in assay [1] was not above 8 µg/mL. For the compound `COc1cc2cc(-c3cccc(-c4ccccc4)c3)nc(N=C(N)N)c2cc1OC` [Example 7], in assay [1], the minimum inhibitory concentration (MIC) was not above 8 µg/mL. `COc1cc(-c2cc3cc(OC)c(OC)c(OC)c3c(C)[n+]2C)cc(-c2cccc(-c3ccc(F)cc3)c2)c1OC.[I-]` [Example 15]: the minimal inhibitory concentration (MIC) (with MRSA; in assay [1]) was not above 8 µg/mL throughout.

In assay [1], `COc1cc2cc(-c3cccc(-c4ccccc4)c3)nc(NCCN)c2cc1OC` [Example 9] registered a minimal inhibitory concentration (MIC) not above 8 µg/mL.

Take `COc1cc(-c2cc3cc(OC)c(OC)c(OC)c3c(C)[n+]2C)cc(-c2cc(-c3ccc(F)cc3)cc(-c3ccc(F)cc3)c2)c1OC.[I-]` [Example 19]: the minimum inhibitory concentration (MIC) (against MRSA; in assay [1]) was not above 8 µg/mL throughout. The IC50 at S. aureus FtsZ GTPase is less than 100 µM.

`COc1cc2cc(-c3cccc(-c4ccccc4)c3)[n+](C)c(N(C)C)c2cc1OC.[I-]` [Example 5] showed an MIC in assay [1] not above 8 µg/mL. For `COc1cc2cc(-c3cccc(C(C)(C)C)c3)nc(CN=C(N)N)c2cc1OC` [Example 13], the MIC (in the assay on MRSA; in assay [1]) was not above 8 µg/mL throughout. On to `COc1cc2cc(-c3cccc(C(C)(C)C)c3)nc(C/N=C(/C)N)c2cc1OC` [Example 23], for which the MIC in assay [1] was not above 8 µg/mL.
